# In publication PMC12587545, “Noncytotoxic polymyxin derivatives enhance antibiotic action against multidrug-resistant Gram-negative bacteria” (Antimicrobial Agents and Chemotherapy, 2025):
# “And” between values parts separate entries of the source, which are not always exact repeats. Equal values may be shown once.
# Experiments:
# [1] = test system: E. coli; test: Checkerboard assay (antibiotic potentiation); format: cell-based, Escherichia coli; conditions: for Interpretation: antibiotic + compound 1; for MICantibiotic + compound: antibiotic MIC with 8 µg/mL (5 µM) compound 1; for MICantibiotic: antibiotic alone; for Potentiation: of antibiotic by 8 µg/mL (5 µM) compound 1
# Description: (§1) The interaction between the compounds and the antibiotics was evaluated using the fractional inhibitory concentration (FIC) index. FIC indices of ≤0.5 is synergistic, 0.5 < × ≤ 4 is additive, whereas >4 is antagonistic ([34]).
# (§2) Synergy was measured by the FIC index, which is the summation of the individual FICs of the antibiotic and the compound. The FIC is calculated by dividing the MIC of one agent in the presence of another by the MIC of the agent alone. […] The FBS studies were conducted by following a previously published protocol ([29], [50]). The FBS was inactivated by heating at 56°C for 30 min with constant swirling.
# [2] = test system: K. pneumoniae; test: Checkerboard assay (antibiotic potentiation); format: cell-based, Klebsiella pneumoniae; conditions: for Interpretation: antibiotic + compound 1; for MICantibiotic: antibiotic alone; for Potentiation: of antibiotic by 8 µg/mL (5 µM) compound 1
# Description: as §1, §2
# [3] = test system: A. baumannii; test: Checkerboard assay (antibiotic potentiation); format: cell-based, Acinetobacter baumannii; conditions: for MICantibiotic: antibiotic alone
# Description: (§3) The interaction between the compounds and the antibiotics was evaluated using the fractional inhibitory concentration (FIC) index. FIC indices of ≤0.5 is synergistic, 0.5 < × ≤ 4 is additive, whereas >4 is antagonistic ([34]). […] .
# (§4) The bacterial isolates were acquired from ATCC or the Canadian Ward Surveillance (CANWARD) study ([56]). CANWARD isolates were collected from infected patients admitted to participating medical centers across Canada.
# (§5) The antibiotic and compounds were serially diluted 2-fold in CAMHB along the x- and y-axis, respectively, on a 96-well plate that was subsequently incubated with equal volumes of bacterial inoculum overnight at 37°C. Wells containing only media were used as negative controls, and wells containing only bacteria were used as positive controls. Synergy was measured by the FIC index, which is the summation of the individual FICs of the antibiotic and the compound. The FIC is calculated by dividing the MIC of one agent in the presence of another by the MIC of the agent alone. Turbidity was confirmed with a Molecular Devices (United States) EMax Plus microplate reader at a wavelength of 590 nm. The FBS studies were conducted by following a previously published protocol ([29], [50]). The FBS was inactivated by heating at 56°C for 30 min with constant swirling.
# [4] = test system: MDR Gram-negative bacteria clinical isolates; test: Checkerboard assay, summary over strains; format: cell-based; conditions: of all 14 clinical isolates; number (%)
# Description: as §1, §5
# [5] = test system: E. cloacae; test: Checkerboard assay (antibiotic potentiation); format: cell-based, Enterobacter cloacae; conditions: E. cloacae 121887 (colistin-resistant)
# Description: as §3, §4, §5
# [6] = test system: P. aeruginosa; test: Checkerboard assay (antibiotic potentiation); format: cell-based, Pseudomonas aeruginosa; conditions: for MICantibiotic: antibiotic alone
# Description: as §1, §2
# [7] = E. coli 94393 (colistin-resistant)
# [8] = E. coli 94474 (colistin-resistant)
# [9] = K. pneumoniae 113250 (colistin-resistant)
structure (smiles),measurement,setting,value
CC(C)(O/N=C(\C(=O)N[C@@H]1C(=O)N2C(C(=O)[O-])=C(C[n+]3ccccc3)CS[C@H]12)c1csc(N)n1)C(=O)O [Ceftazidime],Interpretation,[1]; [7],Additive (0.5 < × ≤ 4 is additive)
same,MICantibiotic + compound,[1]; [7],0.5 µg/mL
same,MICantibiotic,[1]; [7],0.5 µg/mL
same,Potentiation,[1]; [7],1 fold
same,Interpretation,[1]; [8],Additive (0.5 < × ≤ 4 is additive)
same,MICantibiotic + compound,[1]; [8],0.25 µg/mL
same,MICantibiotic,[1]; [8],0.5 µg/mL
same,Potentiation,[1]; [8],2 fold
same,Interpretation,[2]; [9],Additive (0.5 < × ≤ 4 is additive)
same,MICantibiotic + compound,"[2]; K. pneumoniae 113250 (colistin-resistant), antibiotic MIC with 8 µg/mL (5 µM) compound 1",0.5 µg/mL
same,MICantibiotic,[2]; [9],0.5 µg/mL
same,Potentiation,[2]; [9],1 fold
same,Interpretation,[2]; K. pneumoniae 116381,Synergy (FIC indices of ≤0.5 is synergistic)
same,MICantibiotic,[2]; K. pneumoniae 116381,8 µg/mL
same,Potentiation,[2]; K. pneumoniae 116381,64 fold
same,Interpretation,"[3]; A. baumannii 92247 (colistin-resistant), antibiotic + compound 1",Additive (0.5 < × ≤ 4 is additive)
same,MICantibiotic + compound,"[3]; A. baumannii 92247 (colistin-resistant), antibiotic MIC with 4 µg/mL (2 µM) compound 1",4 µg/mL
same,MICantibiotic,[3]; A. baumannii 92247 (colistin-resistant),8 µg/mL
same,Potentiation,"[3]; A. baumannii 92247 (colistin-resistant), of antibiotic by 4 µg/mL (2 µM) compound 1",2 fold
same,Interpretation,"[3]; A. baumannii 110193, antibiotic + compound 1",Synergy (FIC indices of ≤0.5 is synergistic)
same,MICantibiotic + compound,"[3]; A. baumannii 110193, antibiotic MIC with 4 µg/mL (2 µM) compound 1",64 µg/mL
same,MICantibiotic,[3]; A. baumannii 110193,256 µg/mL
same,Potentiation,"[3]; A. baumannii 110193, of antibiotic by 4 µg/mL (2 µM) compound 1",4 fold
same,Interpretation,"[3]; A. baumannii AB027, antibiotic + compound 1",Additive (0.5 < × ≤ 4 is additive)
same,MICantibiotic + compound,"[3]; A. baumannii AB027, antibiotic MIC with 4 µg/mL (2 µM) compound 1",1024 µg/mL
same,MICantibiotic,[3]; A. baumannii AB027,2048 µg/mL
same,Potentiation,"[3]; A. baumannii AB027, of antibiotic by 4 µg/mL (2 µM) compound 1",2 fold
same,MICantibiotic + compound,"[3]; A. baumannii AB031, antibiotic MIC with 4 µg/mL (2 µM) compound 1",>64 µg/mL
same,MICantibiotic,[3]; A. baumannii AB031,>64 µg/mL
same,Interpretation,"[3]; A. baumannii ATCC 17978, antibiotic + compound 1",Synergy (FIC indices of ≤0.5 is synergistic)
same,Interpretation,"[3]; A. baumannii ATCC 17978, antibiotic + compound 3",Additive (0.5 < × ≤ 4 is additive)
same,MICantibiotic + compound,"[3]; A. baumannii ATCC 17978, antibiotic MIC with 8 µg/mL (5 µM) compound 3",4 µg/mL
same,MICantibiotic + compound,"[3]; A. baumannii ATCC 17978, antibiotic MIC with ¼ MIC (≤5 µM) of compound 1",1 µg/mL
same,Potentiation,"[3]; A. baumannii ATCC 17978, of antibiotic by 8 µg/mL (5 µM) compound 3",1 fold
same,Potentiation,"[3]; A. baumannii ATCC 17978, of antibiotic by ¼ MIC (≤5 µM) of compound 1",16 fold
same,clinical isolates in which the antibiotic was synergized by compound 1,[4],5 (36%) strains
same,Interpretation,[5]; antibiotic + compound 1,Additive (0.5 < × ≤ 4 is additive)
same,MICantibiotic + compound,[5]; antibiotic MIC with 8 µg/mL (5 µM) compound 1,0.25 µg/mL
same,MICantibiotic,[5]; antibiotic alone,0.25 µg/mL
same,Potentiation,[5]; of antibiotic by 8 µg/mL (5 µM) compound 1,1 fold
same,Interpretation,"[6]; P. aeruginosa 259-96916, antibiotic + compound 1",Synergy (FIC indices of ≤0.5 is synergistic)
same,MICantibiotic + compound,"[6]; P. aeruginosa 259-96916, antibiotic MIC with 8 µg/mL (5 µM) compound 1",16 µg/mL
same,MICantibiotic,[6]; P. aeruginosa 259-96916,512 µg/mL
same,Potentiation,"[6]; P. aeruginosa 259-96916, of antibiotic by 8 µg/mL (5 µM) compound 1",32 fold
same,Interpretation,"[6]; P. aeruginosa 262-101856, antibiotic + compound 1",Synergy (FIC indices of ≤0.5 is synergistic)
same,MICantibiotic + compound,"[6]; P. aeruginosa 262-101856, antibiotic MIC with 8 µg/mL (5 µM) compound 1",4 µg/mL
same,MICantibiotic,[6]; P. aeruginosa 262-101856,16 µg/mL
same,Potentiation,"[6]; P. aeruginosa 262-101856, of antibiotic by 8 µg/mL (5 µM) compound 1",4 fold
same,Interpretation,"[6]; P. aeruginosa 264-105354, antibiotic + compound 1",Synergy (FIC indices of ≤0.5 is synergistic)
same,MICantibiotic + compound,"[6]; P. aeruginosa 264-105354, antibiotic MIC with 8 µg/mL (5 µM) compound 1",16 µg/mL
same,MICantibiotic,[6]; P. aeruginosa 264-105354,128 µg/mL
same,Potentiation,"[6]; P. aeruginosa 264-105354, of antibiotic by 8 µg/mL (5 µM) compound 1",8 fold
same,Interpretation,"[6]; P. aeruginosa 101243 (colistin-resistant), antibiotic + compound 1",Additive (0.5 < × ≤ 4 is additive)
same,MICantibiotic + compound,"[6]; P. aeruginosa 101243 (colistin-resistant), antibiotic MIC with 8 µg/mL (5 µM) compound 1",256 µg/mL
same,MICantibiotic,[6]; P. aeruginosa 101243 (colistin-resistant),512 µg/mL
same,Potentiation,"[6]; P. aeruginosa 101243 (colistin-resistant), of antibiotic by 8 µg/mL (5 µM) compound 1",2 fold
same,Interpretation,"[6]; P. aeruginosa 114228 (colistin-resistant), antibiotic + compound 1",Additive (0.5 < × ≤ 4 is additive)
same,MICantibiotic + compound,"[6]; P. aeruginosa 114228 (colistin-resistant), antibiotic MIC with 8 µg/mL (5 µM) compound 1",8 µg/mL
same,MICantibiotic,[6]; P. aeruginosa 114228 (colistin-resistant),8 µg/mL
same,Potentiation,"[6]; P. aeruginosa 114228 (colistin-resistant), of antibiotic by 8 µg/mL (5 µM) compound 1",1 fold
same,Interpretation,"[6]; P. aeruginosa PAO1, antibiotic + compound 1",Synergy (FIC indices of ≤0.5 is synergistic)
same,Interpretation,"[6]; P. aeruginosa PAO1, antibiotic + compound 3",Additive (0.5 < × ≤ 4 is additive)
same,MICantibiotic + compound,"[6]; P. aeruginosa PAO1, antibiotic MIC with 8 µg/mL (5 µM) compound 1",0.5 µg/mL
same,MICantibiotic + compound,"[6]; P. aeruginosa PAO1, antibiotic MIC with 8 µg/mL (5 µM) compound 3",4 µg/mL
same,MICantibiotic,[6]; P. aeruginosa PAO1,4 µg/mL and 2 µg/mL
same,Potentiation,"[6]; P. aeruginosa PAO1, of antibiotic by 8 µg/mL (5 µM) compound 1",4 fold
same,Potentiation,"[6]; P. aeruginosa PAO1, of antibiotic by 8 µg/mL (5 µM) compound 3",1 fold
